Measured values: patent US20170000784A1, “Autophagy Inhibitors” (priority 2013, published 2017)
Read-outs that look alike come from different tables or passages of the source.

Columns and labels:
Type in all cases: cell-based
[1] = system: UACC-502 melanoma cell line; assay: Cell viability (IC50) screen, CellTiter Glo, UACC-502; conditions: Homo sapiens
Procedure: (§1) U2OS cells were seeded at 500 cells per well in 5A McCoy's with 10% FBS in 96-well clear bottom, black-walled tissue culture plates. All melanoma cell lines (A375, UACC-91, UACC-257, UACC-502, UACC-903, UACC-1308, UACC-1940, UACC-2534, and UACC-3291) were seeded at 5,000 cells per well in RPMI 1640 with 10% FBS in 96-well clear bottom, black-walled tissue culture plates. After 24 hour incubation, cells were treated with VATG compounds in triplicate with a 10-point half log dose response from […] for 24 and 48 hours. Medium was removed and 2× CellTiter Glo (Promega, G7571) reagent mixed 1:1 with Opti-MEM (Invitrogen, 31985062) was added at 100 μL per well and incubated at room temperature for 15 minutes while rocking. 75 μL per well was moved to a white-walled 96-well plate and luminescence quantified using the 96 LUM program on an EnVision plate reader (PerkinElmer) and exported for analysis. All triplicate data points were averaged and luminescent readings for each treatment were normalized to vehicle control for change in viability. Dose response curves were input into SigmaPlot for IC50 calculations (Systat Software Inc).

A375 melanoma cell line = assay: Cell viability (IC50) screen, CellTiter Glo, A375; conditions: Homo sapiens
Procedure: as §1

[2] = system: U2OS cells stably expressing tfLC3; conditions: for autophagy inhibition at 3 μM: FIG. 10B
Procedure: U2OS cells stably expressing tfLC3 were seeded at 50,000 cells per well in 5A McCoy's with 10% FBS on number 1.5 coverglass in 24-well tissue culture dishes. After 24 hours, cells were treated with known autophagy controls rapamycin [100 nM] (Millipore, 553210-10 mg), bafilomycin A1 [100 nM] (AG Scientific, B-1183), AZD-8055 [100 nM](Selleck Chemicals, S1555), and CQ [50 μM] as well as autophagy inhibitors (CQ, QN, Example 7, and Example 27) at doses of 0.1 μM, 0.25 μM, 0.5 μM, 1 μM, 5 μM, 15 μM, 25 μM, and 50 μM for three hours. Cells were washed with 1×PBS, fixed with 3.7% formaldehyde, and nuclei were stained with Hoechst 33342 (2 μg/mL). Coverglass was inverted onto microscope slides using mounting gel. Cells were imaged using a 60× oil-immersion objective on a Nikon Eclipse Ti fluorescent microscope and 10 images at each dose were taken for quantification. Image processing and quantification were completed with the Nikon NIS Elements software. To quantify, images were deconvolved using a 2D blind deconvolution function with one iteration and settings of normal cell thickness and normal noise level. Regions of interest (ROI) were drawn around the edges of each cell. Intensity thresholds were set to include all pixels equal to or greater than the intensity above the mean background fluorescence using the separation feature and restrictions set for puncta size (FIG. 9). Objects within the threshold for each ROI were quantified using an automated object count function and exported for analysis. Although other parameters were also collected, the mean intensity of the objects was averaged between the 10 images of each dose, or approximately 50 cells (FIGS. 9B and 9C). Representative images were chosen for each dose and the lookup table (LUT) brightness' were set based on the mean intensity of the DMSO control (FIGS. 8A and 10A). The mean intensity of each image was divided by the mean intensity of the DMSO control to control for brightness and the LUTs were adjusted by the percent difference to avoid background and for consistent visualization. All other settings (gain, exposure time, and lamp strength) were kept the same across all conditions. […] Mean intensity was further chosen for quantification as it accurately represents both the increase in puncta number and area when the accumulation of autophagosomes partially fuse (FIG. 9C, 9D). Quantification of the red channel (RFP-LC3 puncta) was performed to determine the total autophagic vesicle population (both autophagosomes and autolysosomes).
Autophagy inhibition can be measured by fluorescent microscopy using cells expressing a tandem fluorescent (RFP-GFP) labeled LC3 sensor (tfLC3). Upon autophagosome nucleation, LC3 is localized to the autophagic membrane and the overlapping GFP and RFP fluorescence appears as yellow puncta. After the autophagosome matures, it fuses with the lysosome, forming an autolysosome. The GFP in this LC3 sensor is pH labile and becomes quenched by the acidic environment of the autolysosome. However, the RFP remains stable; therefore, autolysosomes are indicated by red puncta. Accordingly, when autophagy is inhibited at the final stage (completion), the abundance of yellow puncta is expected to increase proportionally to the level of autophagy inhibition.
Cells were then fixed and imaged by fluorescent microscopy.

[3] = system: UACC-91 melanoma cell line; assay: Cell viability (IC50) screen, CellTiter Glo, UACC-91; conditions: Homo sapiens
Procedure: as §1

[4] = system: UACC-903 melanoma cell line; assay: Cell viability (IC50) screen, CellTiter Glo, UACC-903; conditions: Homo sapiens
Procedure: as §1

U2OS cells = assay: Cell viability (IC50) screen, CellTiter Glo, U2OS; conditions: for IC50: U2OS cell viability, CellTiter Glo, 48 hours
Procedure: as §1

[5] = UACC-502 cell viability, CellTiter Glo, read-out: IC50
[6] = A-375, A375 cell viability, CellTiter Glo, 48 hours, read-out: IC50
[7] = UACC-91 cell viability, CellTiter Glo, read-out: IC50
[8] = UACC-903 cell viability, CellTiter Glo, read-out: IC50
[9] = U2OS IC50 relative to quinacrine

| Structure (SMILES) | IC50 [1, 5] | IC50 (A375 melanoma cell line; [6]) | Potency (EC/ECCQ) [2] | autophagy inhibition at 3 μM [2] | concentration giving a significant increase in mean intensity of autophagic puncta ([2]; U2OS-tfLC3, ten-point dose response, FIG. 8B) | Effective Concentration (EC) ([2]; concentration with statistically significant increase in puncta number over vehicle control, three hours) | IC50 [3, 7] | IC50 [4, 8] | IC50 (U2OS cells; Homo sapiens, U2OS, 48 h, read-out: IC50) | fold more potent at autophagy inhibition than QN [2] | fold more cytotoxic than QN (U2OS cells; [9]) | IC50 (U2OS cells; read-out: IC50) | IC50 [1] | IC50 (A375 melanoma cell line; A-375, 48 h) | Potency (EC/ECCQ) ([2]; relative potency score versus chloroquine, greater than one = more potent than CQ) | IC50 [3] | IC50 ([4]; UACC-903) | times less cytotoxic than QN (U2OS cells; [9]) | IC50 (U2OS cells) |
| --- | --- | --- | --- | --- | --- | --- | --- | --- | --- | --- | --- | --- | --- | --- | --- | --- | --- | --- | --- |
| CCN(CC)CCCC(C)Nc1c2ccc(Cl)cc2nc2ccc(OC)cc12 (centres unmarked) [Quinacrine, quinacrine, reference compound] | 2200 nM | 2300 nM | ~60 | inhibit autophagy | 0.25 µM | 0.25 µM | 2900 nM | 2700 nM | 2500 nM | – | – | – | – | – | – | – | – | – | – |
| COc1ccc2nc3cc(Cl)ccc3c(NCCCCN3CCN(C)CC3)c2c1 [Example 7, 6-Chloro-2-methoxy-N-(4-(4-methylpiperazin-1-yl)butyl)acridin-9-amine] | 1800 nM | 400 nM | 150 | inhibit autophagy | – | – | 500 nM | 1500 nM | – | 2 | 3.5 | 700 nM | – | – | – | – | – | – | – |
| CN1CCN(CCNc2c3c(nc4cc(Cl)ccc24)CCCC3)CC1 [Example 27, 6-Chloro-N-(2-(4-methylpiperazin-1-yl)ethyl)-1,2,3,4-tetrahydroacridin-9-amine] | – | – | – | inhibit autophagy | – | – | – | – | – | – | – | – | 42300 nM | 24300 nM | 3 | 22200 nM | 27200 nM | 10 | 27000 nM |
